Measured values taken from publication PMC3847553, “Kinetic properties of “dual” orexin receptor antagonists at OX1R and OX2R orexin receptors” (Frontiers in Neuroscience, 2013).

Legend:
human OX2R = molecular target: T1, human OX2R (Homo sapiens, UniProt O43614); experiment: FLIPR orexin A-stimulated calcium accumulation, human OX2R; type: cell-based; details: CHO cells
T1 construct: expressed in transfected cells; host or cells: CHO; cells from GNF, San Diego
T1 sequence (O43614 1-444): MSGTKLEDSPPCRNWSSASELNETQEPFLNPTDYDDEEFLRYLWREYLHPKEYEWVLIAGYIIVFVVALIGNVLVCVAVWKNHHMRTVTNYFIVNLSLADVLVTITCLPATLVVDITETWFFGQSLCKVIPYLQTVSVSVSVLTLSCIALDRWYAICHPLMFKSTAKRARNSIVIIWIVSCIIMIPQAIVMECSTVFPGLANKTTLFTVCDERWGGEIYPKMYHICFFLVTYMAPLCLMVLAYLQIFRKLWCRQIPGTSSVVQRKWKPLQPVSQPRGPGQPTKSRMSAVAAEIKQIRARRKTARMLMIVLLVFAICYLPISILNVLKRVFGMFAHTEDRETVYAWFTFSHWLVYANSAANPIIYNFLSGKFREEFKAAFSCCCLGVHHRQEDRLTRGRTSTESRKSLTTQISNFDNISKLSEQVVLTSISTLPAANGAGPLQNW
From the text: (§1) Chinese Hamster Ovary (CHO) cells stably transfected with the cDNA encoding the human OX1R (CHO-hOX1) or OX2R (CHO-hOX2) were used (kindly provided by T. Cremer and Dr. S. Geisse, NIBR Basel, Switzerland). For measurements of calcium accumulation using FLIPR® (Fluorescent Imaging Plate Reader) assay, CHO or Human Embryonic Kidney (HEK) cells stably expressing mouse, rat or human OX1R or OX2R (kindly provided by Dr. A. Chen, GNF, San Diego, CA, USA) were used. […] Cells were maintained in a humidified incubator at 37°C in 5% CO2. For crude cell membrane preparations, cells were washed and harvested in 10 mM HEPES (pH 7.5), and centrifuged at 4°C for 5 min at 2500 g. The cell pellet was either stored at −80°C or used directly.
(§2) Cells expressing either human, rat or mouse OX1R or OX2R were seeded at 8,000 cells/well in black 384 well clear bottom plates and incubated overnight at 37°C. The following day, medium was discarded and cells loaded with 50 μ l of 1 mM Fluo-4 AM (Invitrogen F14202) in dimethyl sulfoxide in working buffer (Hanks' balanced salt solution, 10 mM HEPES) and incubated for 60 min at 37°C. The loading buffer was removed and cells were washed with 100 μ l working buffer containing […], 0.1% BSA, and 2.5 mM Probenecid (pH 7.4) to remove the excess Fluo-4 AM. […] The assay plate was then transferred to the Molecular Devices-FLIPR384. The baseline calcium signal was recorded for 10 s, then the antagonist of interest was injected (10 μl at 3 times the final concentration) and the calcium signal recorded every second for 1 min, then every 2 s 40 times.

human OX1R = molecular target: T2, human OX1R (Homo sapiens, UniProt O43613); experiment: FLIPR orexin A-stimulated calcium accumulation, human OX1R; type: cell-based; details: CHO cells
T2 construct: expressed in transfected cells; host or cells: CHO; cells from GNF, San Diego
T2 sequence (O43613 1-425): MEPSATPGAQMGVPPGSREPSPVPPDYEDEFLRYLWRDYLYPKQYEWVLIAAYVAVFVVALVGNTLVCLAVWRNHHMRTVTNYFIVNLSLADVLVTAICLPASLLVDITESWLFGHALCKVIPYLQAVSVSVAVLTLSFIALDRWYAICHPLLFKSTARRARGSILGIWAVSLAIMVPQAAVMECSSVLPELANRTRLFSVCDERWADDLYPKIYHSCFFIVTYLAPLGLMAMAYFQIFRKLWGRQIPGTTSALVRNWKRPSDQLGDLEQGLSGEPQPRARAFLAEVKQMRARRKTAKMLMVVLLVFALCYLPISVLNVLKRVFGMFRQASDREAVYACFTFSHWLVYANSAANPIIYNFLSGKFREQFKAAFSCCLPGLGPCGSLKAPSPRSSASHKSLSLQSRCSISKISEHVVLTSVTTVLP
From the text: as §1, §2

Row | SMILES | pKi (human OX2R; antagonist incubation 30 min) | Ki (human OX2R; antagonist incubation 1 h) [nM] | Ki (human OX2R; antagonist incubation 2 h) [nM] | Ki (human OX2R; antagonist incubation 4 h) [nM] | Ki (human OX1R; antagonist incubation 30 min) [nM] | Ki (human OX1R; antagonist incubation 1 h) [nM] | Ki (human OX1R; antagonist incubation 2 h) [nM] | Ki (human OX1R; antagonist incubation 4 h) [nM] | Ki (human OX2R; antagonist incubation 30 min) [nM] | pKi (human OX1R; antagonist incubation 1 h) | pKi (human OX1R; antagonist incubation 2 h)
1 | CNC(=O)[C@@H](c1ccccc1)N1CCc2cc(OC)c(OC)cc2[C@@H]1CCc1ccc(C(F)(F)F)cc1 [Almorexant] | 8.33 −log M | 1.51 | 1.58 | 0.813 |  |  |  |  |  |  | 
2 | Cc1ccc(-c2ncccn2)c(C(=O)N2C[C@H](COc3ccc(F)cn3)CC[C@H]2C)c1 [Filorexant] |  | 0.224 | 0.186 | 0.17 | 2.24 | 1.62 | 1.66 | 2.82 | 0.355 |  | 
3 | COc1ccnc(N2CCC3(CCCN(Cc4c[nH]c5ccccc45)C3=O)CC2)n1 [IPSU, 2-((1H-Indol-3-yl)methyl)-9-(4-methoxypyrimidin-2-yl)-2,9-diazaspiro[5.5]undecan-1-one] |  | 10.7 | 15.1 | 20.9 | 479 |  |  | 724 | 10 | 6.29 −log M | 6.28 −log M
4 | Cc1nc(C(=O)N2CCCC[C@H]2CNC(=O)c2cccc3occc23)c(-c2ccc(F)cc2)s1 [SB-649868] |  | 0.372 | 0.17 | 0.151 | 0.933 | 1.35 | 0.513 | 0.417 | 0.302 |  | 
